Columns and labels:
[1] = molecular target: T1, human platelet derived endothelial cell growth factor (thymidine phosphorylase) (Homo sapiens, UniProt P19971); assay: Inhibitory activity to platelet derived endothelial cell growth factor (thymidine phosphorylase); type: biochemical; details: 37° C., 90 minutes, pH 5.6, absorbance at 300 nm; from 0.1, 1, 10 and 100 μg/ml
T1 construct: purchased Sigma
T1 sequence (P19971 11-482): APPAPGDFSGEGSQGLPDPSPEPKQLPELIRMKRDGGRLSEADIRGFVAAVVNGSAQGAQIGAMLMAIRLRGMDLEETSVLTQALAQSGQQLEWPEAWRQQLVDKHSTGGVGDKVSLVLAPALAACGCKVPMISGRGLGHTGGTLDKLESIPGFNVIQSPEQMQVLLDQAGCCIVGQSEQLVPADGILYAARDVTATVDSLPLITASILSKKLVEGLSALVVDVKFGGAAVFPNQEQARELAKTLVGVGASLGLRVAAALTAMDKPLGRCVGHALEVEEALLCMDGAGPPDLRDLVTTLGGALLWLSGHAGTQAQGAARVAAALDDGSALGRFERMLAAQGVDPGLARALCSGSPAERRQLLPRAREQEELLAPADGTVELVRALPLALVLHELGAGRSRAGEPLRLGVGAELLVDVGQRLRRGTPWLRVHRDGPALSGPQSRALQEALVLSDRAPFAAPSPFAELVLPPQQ
Experimental: (1) 100 mmol/l of thymidine (produced by Wako Pure Chemical Industries, Ltd.), 500 mmol/l of K2HPO4 (produced by Nacalai Tesque) and 0.5 mol/l of 2-morpholinoethansulfonic acid.H2O (pH 5.6; produced by Dojindo Laboratories) were prepared.
(2) The compound of the general formula (I) was dissolved in dimethylsulfoxide solution having a concentration of at most 10%, to prepare a test sample having a concentration of the compound of the general formula (I) of 1.0 mg/ml.
(3) 5 μg/ml of human platelet derived endothelial cell growth factor (produced by Sigma) was prepared. […]
(6) Absorbance of the solution for measurement was measured by using a spectrophotometer (SPECTRA max 250: produced by Molecular Devices) at a wavelength of 300 nm.
(7) Sterile water was added to 100 μl of buffer solution having 0.5 mol/l of 2-morpholinoethansulfonic acid.H2O (pH 5.6) and 20 μl of the test sample having a concentration of the compound of the general formula (I) of 1.0 mg/ml, so that the total amount was 200 μl, to prepare a solution of the compound of the general formula (I) having a final concentration of 100 μg/ml. Absorbance of a liquid having 50 μl of 2N-NaOH added to 50 μl of the solution, as a sample for measuring background, was measured at a wavelength of 300 nm. […]

aminopeptidase N = aminopeptidase N (Homo sapiens, UniProt P15144); assay: Inhibitory effect to aminopeptidase N (L-alanine-7-amido-4-methylcoumarin substrate, MOLT-4 cells, fluorescence); type: biochemical; details: based on fluorescence intensity of the control fraction (Table 13, Test Example 9)
Experimental: As the substrate buffer solution, 100 mM Hepes buffer solution pH 7.6 (including 120 mM sodium chloride, 5 mM potassium chloride, 1.2 mM magnesium sulfate and 0.5% bovine serum albumin) was used. After the reaction was finished, fluorescence intensity was measured by using MTP-32 Colonna microplate reader (produced by Colonna Electric) under measurement condition at an excitation wavelength of 380 nm and at an emission wavelength of 440 nm. […] The values in the Table are based on fluorescence intensity of the control fraction, and represent the enzyme-inhibitory activity as IC50 (μg/ml).

Chain of aminopeptidase N (P15144 2-967): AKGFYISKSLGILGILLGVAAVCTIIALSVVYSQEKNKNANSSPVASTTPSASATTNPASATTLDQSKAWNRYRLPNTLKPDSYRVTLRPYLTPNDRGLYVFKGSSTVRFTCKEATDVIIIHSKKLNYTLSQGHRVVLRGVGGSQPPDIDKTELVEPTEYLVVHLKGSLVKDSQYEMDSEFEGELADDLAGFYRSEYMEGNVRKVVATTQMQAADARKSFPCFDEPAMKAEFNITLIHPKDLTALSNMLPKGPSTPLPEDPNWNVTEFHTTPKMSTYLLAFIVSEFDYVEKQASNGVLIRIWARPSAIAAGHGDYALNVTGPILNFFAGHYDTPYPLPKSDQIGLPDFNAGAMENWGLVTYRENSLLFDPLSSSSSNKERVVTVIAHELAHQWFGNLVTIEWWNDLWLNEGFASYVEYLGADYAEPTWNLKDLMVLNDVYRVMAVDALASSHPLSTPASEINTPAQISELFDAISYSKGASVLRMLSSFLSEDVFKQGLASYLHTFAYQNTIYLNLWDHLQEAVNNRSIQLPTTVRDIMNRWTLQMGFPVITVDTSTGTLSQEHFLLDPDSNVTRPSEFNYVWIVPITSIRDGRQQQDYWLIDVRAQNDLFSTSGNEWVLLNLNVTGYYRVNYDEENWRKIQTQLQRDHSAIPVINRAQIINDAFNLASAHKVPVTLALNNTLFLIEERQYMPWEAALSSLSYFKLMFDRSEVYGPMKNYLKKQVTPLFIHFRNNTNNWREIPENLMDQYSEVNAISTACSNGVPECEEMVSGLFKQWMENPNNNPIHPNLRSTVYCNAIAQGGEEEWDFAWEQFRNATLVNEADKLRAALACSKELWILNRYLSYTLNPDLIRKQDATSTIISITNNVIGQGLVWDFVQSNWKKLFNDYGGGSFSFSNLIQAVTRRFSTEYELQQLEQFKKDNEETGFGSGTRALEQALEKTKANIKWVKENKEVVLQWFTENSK

`O=C1Cc2ccccc2C(=O)N1c1ccccc1` [Compound A-1, N-phenyl-homophthalimide] showed an IC50 [1] of 160 µM.
For `CSc1ccccc1N1C(=O)c2cccc(O)c2C1=O` [Compound 194], the “Aminopeptidase N inhibiting activity IC50” value (aminopeptidase N) was 38 µg/mL.
Work on `Cc1cccc(C)c1N1C(=O)Cc2ccccc2C1=O` [Compound A-2, N-(2,6-dimethylphenyl)-homophthalimide] yielded an IC50 [1] of 230 µM.

Reference: patent US6429212B1, “Medicinal composition” (Ishihara Sangyo Kaisha Ltd., priority 1996, dated 2002)
